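Following 48 hours of exposure in 96-well plates, responses at five concentrations were used to interpolate endpoints linearly. GI50 marks 50% less growth.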 The source made the active and inactive calls. Cut-off read from the data, not from the text of the source: active = GI50 up to about 1.1 µM and inactive = higher.
How the values were obtained:
Assay in all cases: growth of human tumour cells (NCI), 48 h
[1] = system: SF-295
[2] = system: MDA-MB-435
[3] = system: M14
[4] = system: SW-620
[5] = system: KM12
[6] = system: SR
[7] = system: UACC-257
[8] = system: ACHN
[9] = system: A549
[10] = system: SK-MEL-5
[11] = system: NCI-H226
[12] = system: Hs-578T
[13] = system: UO-31
[14] = system: SK-MEL-28
[15] = system: HCC 2998
[16] = system: OVCAR-4
[17] = system: IGROV-1
[18] = system: SNB-19
[19] = system: Malme-3M
[20] = system: T47D

In the case of `CN(C)CC1CCC/C(=C\c2ccc(Cl)cc2)C1=O` (stereo not given), the GI50 [1] was 14.2 µM (inactive), the GI50 [2] was 3.83 µM (inactive) and the GI50 [3] was 2.28 µM (inactive). For the same compound, the GI50 [4] was 1.93 µM (inactive), the GI50 [5] was 1.69 µM (inactive) and the GI50 [6] was 1.33 µM (inactive). The GI50 [7] was 4.91 µM (inactive), the GI50 [8] was 2.57 µM (inactive) and the GI50 [9] was 16.9 µM (inactive). For the same compound, the GI50 [10] was 4 µM (inactive), the GI50 [11] was 14.7 µM (inactive) and the GI50 [12] was 2.92 µM (inactive). The GI50 [13] was 2.25 µM (inactive), the GI50 [14] was 3.46 µM (inactive) and the GI50 [15] was 7.38 µM (inactive). For the same compound, the GI50 [16] was 2.79 µM (inactive), the GI50 [17] was 3.21 µM (inactive) and the GI50 [18] was 11.8 µM (inactive). The GI50 [19] was 1.91 µM (inactive) and the GI50 [20] was 3.49 µM (inactive).
In the case of `COc1ccc(C(=O)/C=C/c2ccc(O)c(O)c2F)c(OC)c1`, the GI50 [1] was 5.41 µM (inactive), the GI50 [2] was 3.58 µM (inactive) and the GI50 [3] was 7.71 µM (inactive). The GI50 [4] was 5.09 µM (inactive), the GI50 [5] was 4.99 µM (inactive) and the GI50 [6] was 0.893 µM (active). The GI50 [7] was 9.08 µM (inactive), the GI50 [8] was 3.01 µM (inactive) and the GI50 [9] was 11 µM (inactive). For the same compound, the GI50 [10] was 1.61 µM (inactive), the GI50 [11] was 11.4 µM (inactive) and the GI50 [12] was 6.44 µM (inactive). The GI50 [13] was 2.56 µM (inactive), the GI50 [14] was 8.11 µM (inactive) and the GI50 [15] was 4.07 µM (inactive). For the same compound, the GI50 [16] was 4.09 µM (inactive), the GI50 [17] was 9.98 µM (inactive) and the GI50 [18] was 8.3 µM (inactive). For the same compound, the GI50 [19] was 7.64 µM (inactive) and the GI50 [20] was 0.649 µM (active).
In the case of `N/N=C1/C(=N/O)CCc2nonc21`, the GI50 [1] was > 100 µM (inactive), the GI50 [2] was > 100 µM (inactive) and the GI50 [3] was > 100 µM (inactive). For the same compound, the GI50 [4] was > 100 µM (inactive), the GI50 [5] was > 100 µM (inactive) and the GI50 [6] was > 100 µM (inactive). The GI50 [7] was > 100 µM (inactive), the GI50 [8] was > 100 µM (inactive) and the GI50 [9] was > 100 µM (inactive). The GI50 [10] was > 100 µM (inactive), the GI50 [11] was 24.6 µM (inactive) and the GI50 [12] was > 100 µM (inactive). The GI50 [13] was 28.6 µM (inactive), the GI50 [14] was > 100 µM (inactive) and the GI50 [15] was > 100 µM (inactive). For the same compound, the GI50 [16] was > 100 µM (inactive), the GI50 [17] was > 100 µM (inactive) and the GI50 [18] was 84.1 µM (inactive). The GI50 [19] was > 100 µM (inactive) and the GI50 [20] was > 100 µM (inactive).
For `CC(Cl)(CCC(Cl)C(C)(C)Cl)C(=O)CBr` (stereo not given), the GI50 [1] was 21.4 µM (inactive), the GI50 [2] was 14.2 µM (inactive) and the GI50 [3] was 9.79 µM (inactive). For the same compound, the GI50 [4] was 2.18 µM (inactive), the GI50 [5] was 15.6 µM (inactive) and the GI50 [6] was 1.8 µM (inactive). The GI50 [7] was 12.4 µM (inactive), the GI50 [8] was 8.04 µM (inactive) and the GI50 [9] was 19.5 µM (inactive). For the same compound, the GI50 [10] was 8.49 µM (inactive), the GI50 [11] was 16.8 µM (inactive) and the GI50 [12] was 17.4 µM (inactive). For the same compound, the GI50 [13] was 9.31 µM (inactive), the GI50 [14] was 16.7 µM (inactive) and the GI50 [15] was 17.1 µM (inactive). For the same compound, the GI50 [16] was 2.73 µM (inactive), the GI50 [17] was 13.3 µM (inactive) and the GI50 [18] was 30.3 µM (inactive). For the same compound, the GI50 [19] was 12.3 µM (inactive) and the GI50 [20] was 17.9 µM (inactive).
`NC1NCCC(=O)N1CCc1c[nH]c2ccccc12` (stereo not given) was tested, and the GI50 [1] was 24.5 µM (inactive), the GI50 [2] was 17 µM (inactive) and the GI50 [3] was 19.2 µM (inactive). The GI50 [4] was 21.3 µM (inactive), the GI50 [5] was 15.5 µM (inactive) and the GI50 [6] was 29 µM (inactive). The GI50 [7] was 17.8 µM (inactive), the GI50 [8] was 24.6 µM (inactive) and the GI50 [9] was 26.1 µM (inactive). The GI50 [10] was 16.9 µM (inactive), the GI50 [11] was 28.7 µM (inactive) and the GI50 [12] was 23.4 µM (inactive). For the same compound, the GI50 [13] was 41.6 µM (inactive), the GI50 [14] was 19.3 µM (inactive) and the GI50 [15] was 18.5 µM (inactive). The GI50 [16] was 27.1 µM (inactive), the GI50 [17] was 25.4 µM (inactive) and the GI50 [18] was 33.7 µM (inactive). For the same compound, the GI50 [19] was 19.9 µM (inactive) and the GI50 [20] was 37.2 µM (inactive).
For `c1ccc(C(Oc2noc3ccccc23)c2ccccc2)cc1`, the GI50 [1] was 33 µM (inactive), the GI50 [2] was 20.3 µM (inactive) and the GI50 [3] was 25.2 µM (inactive). The GI50 [4] was 30.8 µM (inactive), the GI50 [5] was 29.1 µM (inactive) and the GI50 [6] was 13.2 µM (inactive). For the same compound, the GI50 [7] was 29.5 µM (inactive), the GI50 [8] was 51.3 µM (inactive) and the GI50 [9] was 39.5 µM (inactive). For the same compound, the GI50 [10] was 18.7 µM (inactive), the GI50 [11] was 50.2 µM (inactive) and the GI50 [12] was 66.4 µM (inactive). For the same compound, the GI50 [13] was 39.5 µM (inactive), the GI50 [14] was 65.5 µM (inactive) and the GI50 [15] was 21.7 µM (inactive). The GI50 [16] was 22.2 µM (inactive), the GI50 [17] was 49.9 µM (inactive) and the GI50 [18] was 46 µM (inactive). The GI50 [19] was 67.5 µM (inactive) and the GI50 [20] was 3.64 µM (inactive).
For `CC1=NN(c2nc(N)nc(/C(C#N)=C\c3ccc([N+](=O)[O-])s3)n2)C(C)(C)C1`, the GI50 [1] was 2.96 µM (inactive), the GI50 [2] was 0.233 µM (active) and the GI50 [3] was 0.298 µM (active). For the same compound, the GI50 [4] was 0.0736 µM (active), the GI50 [5] was 0.316 µM (active) and the GI50 [6] was 0.018 µM (active). For the same compound, the GI50 [7] was 0.211 µM (active), the GI50 [8] was 0.261 µM (active) and the GI50 [9] was 0.887 µM (active). For the same compound, the GI50 [10] was 0.625 µM (active), the GI50 [11] was 2.39 µM (inactive) and the GI50 [12] was 0.783 µM (active). For the same compound, the GI50 [13] was 0.167 µM (active), the GI50 [14] was 0.383 µM (active) and the GI50 [15] was 1.41 µM (inactive). The GI50 [16] was 2.55 µM (inactive), the GI50 [17] was 0.284 µM (active) and the GI50 [18] was 1.66 µM (inactive). For the same compound, the GI50 [19] was 0.764 µM (active) and the GI50 [20] was 0.0743 µM (active).

— ChEMBL document CHEMBL1201862, “PubChem BioAssay data set” (2004)
